Measured values published in patent US12606561B2, “Substituted pyrazolo[1,5-a][1,3,5]triazines as CDK inhibitors” (QURIENT CO., LTD., priority 2018, dated 2026).

Key:
CDK5/p25 = biological target: T1, CDK5/p25 (Homo sapiens, UniProt Q00535); assay: Enzymatic assay for CDK5 (LANCE Ultra kinase assay, FRET based); format: biochemical; settings: ATP at Km
T1 construct: purchased Invitrogen PR8543B
Method: (§1) Enzymatic Binding Assay Protocol for CDK1, CDK2, CDK5 and CDK7
(§2) Inhibition activity of the respective compound on CDK kinase under Km value of ATP was tested in FRET based The LANCE® Ultra kinase assay (Perkin Elmer), which uses a ULight™-labeled peptide substrate and an appropriate Europium-labeled anti-phospho-antibody. Test compounds were made with DMSO solutions, and then 4-fold serial dilutions for 8 doses were prepared using automated liquid handler (POD™ 810, Labcyte) and 80 nL/well of diluted compound solutions were added into the 384-well plates (Greiner, Cat #784075). And then 68 nM of ULight-MBP peptide (Perkin Elmer, Cat #TRF0109-M) and 5 ul/well of ATP (Sigma, Cat #A7699) were added to the plate. After 1 min centrifugation at 1000 rpm, purified CDKs/Cyclin complex were added with the following concentrations respectively. 24 uM for CDK1/Cyclin B (Invitrogen, Cat #PR4768C), 22 uM for CDK2/Cyclin A (Invitrogen, Cat #PV6290), 10 uM for CDK5/p25 (Invitrogen, Cat #PR8543B) and […] for CDK7/Cyclin H/MNAT1 (Invitrogen, Cat #PR6749B) were added to each corresponding plate for CDK1, CDK2, CDK5 and CDK7. Incubate at 23° C. for 60 min and then Eu-labeled anti-phospho-Myelin Basic Protein (PE, Cat #TRF0201-M) and EDTA (Invitrogen, Cat #15575038) mixture in Lance Detection Buffer (Perkin Elmer, Cat #CR97100) was added in each well. After additional incubation at 23° C. for 60 min, test articles were measured the fluorescence using Envision leader (Perkin Elmer, USA) [Laser as excitation light; […] as the first and the second emission filter]. Data were analyzed using XL Fit software.

A2780 = A2780 viability assay (CellTiter-Glo, 72 hours); format: cell-based; settings: Homo sapiens; A2780 cells
Method: Human […] cell line, MV4-11_(ATCC, Cat #CRL-9591), NSCLC (Non-small cell lung cancer) cell line H460 (ATCC, Cat #HTB-177), A2780 (ECACC, Cat #93112519) and OVCAR-3(ATCC, Cat #HTB-161) were obtained from ATCC. Cells were grown in RPMI-1640 media (Invitrogen, Cat #22400-089) supplemented with 10% FBS (Invitrogen, Cat #10099141) and 1% penicillin/streptomycin (Invitrogen, Cat #15070063) and cultured at 37° C., 5% CO2 in a humidified chamber. All cell lines were routinely tested for mycoplasma.
To effect of the CDK7 inhibitor to inhibit the growth of target cancer cells, viability assay were conducted a 72 hour time period. Briefly, the candidate cell line was plated in 96 well plate at the following density of cells respectively. 1×10^4 cells/well for MV4-11, 5×10^3 for H460 and OVCAR-3, and 1×10^3 for A2780. After 24 hours, the cells were treated with various concentrations of the compound (ranging from 0.0015 uM to 10 uM). DMSO solvent without compound served as a control and final DMSO concentration lest than 0.1%. After 72 hours of incubation at 37° C., 5% CO2 incubator, cells were analyzed for the viability using the CellTiter-Glo Luminescent Cell Viability Assay (Promega, Cat #G7570). All viability assays were performed in duplicate and Luminescence was read using an Envision (Perkin Elmer, USA). Data was analyzed using XLfit software.

CDK7/Cyclin H/MNAT1 = biological target: T2, CDK7/Cyclin H/MNAT1 (Homo sapiens, UniProt P50613); assay: Enzymatic assay for CDK7 (LANCE Ultra kinase assay, FRET based); format: biochemical; settings: for IC50: ATP at Km
T2 construct: purchased Invitrogen PR6749B
T2 sequence (P50613 whole entry): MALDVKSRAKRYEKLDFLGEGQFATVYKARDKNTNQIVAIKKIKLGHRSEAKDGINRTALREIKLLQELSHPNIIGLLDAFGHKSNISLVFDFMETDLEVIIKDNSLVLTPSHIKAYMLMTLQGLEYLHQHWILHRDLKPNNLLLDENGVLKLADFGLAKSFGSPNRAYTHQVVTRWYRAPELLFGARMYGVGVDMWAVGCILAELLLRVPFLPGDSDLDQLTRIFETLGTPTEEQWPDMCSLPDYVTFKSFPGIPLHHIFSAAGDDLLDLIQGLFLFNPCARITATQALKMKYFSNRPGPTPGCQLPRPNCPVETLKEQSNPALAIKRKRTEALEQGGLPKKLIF
T2 sequence (P51946 whole entry partner): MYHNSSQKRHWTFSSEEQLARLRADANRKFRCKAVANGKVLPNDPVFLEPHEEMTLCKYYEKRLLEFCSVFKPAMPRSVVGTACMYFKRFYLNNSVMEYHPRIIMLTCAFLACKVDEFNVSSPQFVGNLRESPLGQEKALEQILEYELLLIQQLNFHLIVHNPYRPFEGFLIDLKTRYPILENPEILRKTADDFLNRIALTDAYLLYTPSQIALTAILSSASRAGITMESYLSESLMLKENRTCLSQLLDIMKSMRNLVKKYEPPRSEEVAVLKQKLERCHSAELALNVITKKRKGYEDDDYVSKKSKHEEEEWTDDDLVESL
T2 sequence (P51948 whole entry partner): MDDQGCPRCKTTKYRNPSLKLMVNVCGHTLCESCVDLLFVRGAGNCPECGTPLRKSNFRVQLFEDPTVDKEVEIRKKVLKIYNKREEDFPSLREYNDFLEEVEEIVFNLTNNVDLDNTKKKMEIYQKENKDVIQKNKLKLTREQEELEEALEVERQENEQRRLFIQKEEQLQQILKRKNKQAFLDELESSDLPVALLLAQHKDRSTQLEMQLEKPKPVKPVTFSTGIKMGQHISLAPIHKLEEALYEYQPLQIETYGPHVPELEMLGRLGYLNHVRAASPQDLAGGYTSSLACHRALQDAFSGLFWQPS
Method: as §1
(§3) Inhibition activity of the respective compound on CDK kinase under Km value of ATP was tested in FRET based The LANCE® Ultra kinase assay (Perkin Elmer), which uses a ULight™-labeled peptide substrate and an appropriate Europium-labeled anti-phospho-antibody. […] After 1 min centrifugation at 1000 rpm, purified CDKs/Cyclin complex were added with the following concentrations respectively. […] Data were analyzed using XL Fit software.

CDK1/Cyclin B = biological target: T3, CDK1/Cyclin B (Homo sapiens, UniProt P06493); assay: Enzymatic assay for CDK1 (LANCE Ultra kinase assay, FRET based); format: biochemical; settings: ATP at Km; read-out: CDK1 enzymatic activity IC50
T3 construct: purchased Invitrogen PR4768C
T3 sequence (P06493 whole entry): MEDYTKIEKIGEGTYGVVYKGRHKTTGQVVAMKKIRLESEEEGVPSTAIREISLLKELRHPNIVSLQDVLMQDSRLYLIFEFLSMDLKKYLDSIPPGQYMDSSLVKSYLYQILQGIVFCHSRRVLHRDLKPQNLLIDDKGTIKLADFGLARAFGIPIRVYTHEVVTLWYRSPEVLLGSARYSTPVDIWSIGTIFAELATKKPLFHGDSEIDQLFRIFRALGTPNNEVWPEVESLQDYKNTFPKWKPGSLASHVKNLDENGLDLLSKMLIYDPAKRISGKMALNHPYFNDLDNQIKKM
T3 sequence (P14635 whole entry partner): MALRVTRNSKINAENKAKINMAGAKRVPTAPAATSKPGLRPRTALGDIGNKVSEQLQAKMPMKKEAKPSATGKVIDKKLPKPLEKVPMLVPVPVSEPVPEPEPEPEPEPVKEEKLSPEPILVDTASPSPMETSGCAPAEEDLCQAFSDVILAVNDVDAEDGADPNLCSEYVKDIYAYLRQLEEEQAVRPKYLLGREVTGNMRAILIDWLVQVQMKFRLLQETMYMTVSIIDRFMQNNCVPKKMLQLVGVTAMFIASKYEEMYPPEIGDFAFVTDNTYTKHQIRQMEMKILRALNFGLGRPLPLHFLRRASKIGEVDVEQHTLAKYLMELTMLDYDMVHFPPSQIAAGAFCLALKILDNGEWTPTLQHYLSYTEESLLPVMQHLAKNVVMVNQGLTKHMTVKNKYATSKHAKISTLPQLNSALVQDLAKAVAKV
Method: as §1, §3

CDK2/Cyclin A = biological target: T4, CDK2/Cyclin A (Homo sapiens, UniProt P24941); assay: Enzymatic assay for CDK2 (LANCE Ultra kinase assay, FRET based); format: biochemical; settings: ATP at Km
T4 construct: purchased Invitrogen PV6290
Method: as §1, §2

T1 sequence (Q00535 whole entry): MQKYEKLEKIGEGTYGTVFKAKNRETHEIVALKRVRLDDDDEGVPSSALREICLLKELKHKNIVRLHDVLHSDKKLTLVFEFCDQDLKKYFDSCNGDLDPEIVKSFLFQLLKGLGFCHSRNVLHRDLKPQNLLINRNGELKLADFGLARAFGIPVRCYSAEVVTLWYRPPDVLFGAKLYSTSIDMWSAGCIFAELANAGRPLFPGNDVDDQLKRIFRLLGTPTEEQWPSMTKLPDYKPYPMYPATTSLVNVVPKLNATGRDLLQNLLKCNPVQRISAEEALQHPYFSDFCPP
T1 sequence (Q15078 99-307 partner limits assumed): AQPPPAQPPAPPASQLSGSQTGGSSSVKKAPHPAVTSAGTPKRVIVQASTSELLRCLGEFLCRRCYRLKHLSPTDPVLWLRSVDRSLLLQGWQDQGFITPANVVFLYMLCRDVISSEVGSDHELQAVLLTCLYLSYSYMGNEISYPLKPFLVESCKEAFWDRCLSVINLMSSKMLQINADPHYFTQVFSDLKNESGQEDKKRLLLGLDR

IC50 (CDK5/p25) [nM]	IC50 (A2780) [nM]	IC50 (CDK7/Cyclin H/MNAT1) [nM]	CDK1/CDK7: Selectivity of CDK7 inhibition over CDK1 inhibition (CDK7/Cyclin H/MNAT1)	CDK2/CDK7: Selectivity of CDK7 inhibition over CDK2 inhibition (CDK7/Cyclin H/MNAT1)	CDK5/CDK7: Selectivity of CDK7 inhibition over CDK5 inhibition (CDK7/Cyclin H/MNAT1)	IC50 (CDK1/Cyclin B) [nM]	IC50 (CDK2/Cyclin A) [nM]	Compound
> 1000	< 1000	< 100	A (A indicates [fold] > 500)	A (A indicates [fold] > 500)	A (A indicates [fold] > 500)	> 1000	> 1000	C=CC(=O)Nc1ccc2c(-c3ccccc3CNc3cc(C4CC4)nc4c(C(C)C)cnn34)nccc2c1 [Compound 197]
> 1000	< 1000	< 100	B (B indicates 50 < [fold] ≤ 500)	B (B indicates 50 < [fold] ≤ 500)	B (B indicates 50 < [fold] ≤ 500)	> 1000	> 1000	C=CC(=O)Nc1ccc2c(-c3ccccc3CNc3cc(C(F)(F)F)nc4c(C(C)C)cnn34)nccc2c1 [Compound 198]
> 1000	< 1000	< 100	A (A indicates [fold] > 500)	A (A indicates [fold] > 500)	A (A indicates [fold] > 500)	> 1000	> 1000	C=C(F)C(=O)N1CCc2c(ccnc2-c2ccccc2CNc2nc(OC3CCC(C)(C)NC3)nc3c(C(C)C)cnn23)C1 (stereo not drawn) [Compound 199]
> 1000	< 1000	< 100	B (B indicates 50 < [fold] ≤ 500)	B (B indicates 50 < [fold] ≤ 500)	B (B indicates 50 < [fold] ≤ 500)	> 1000	> 1000	C=CC(=O)Nc1ccc2c(-c3ccccc3CNc3nc(-c4cccnc4)nc4c(C(C)C)cnn34)nccc2c1 [Compound 200]
> 1000	< 1000	< 100	B (B indicates 50 < [fold] ≤ 500)	B (B indicates 50 < [fold] ≤ 500)	B (B indicates 50 < [fold] ≤ 500)	> 1000	> 1000	C=CC(=O)Nc1ccc2c(-c3ccccc3CNc3nc(-c4ccncc4)nc4c(C(C)C)cnn34)nccc2c1 [Compound 201]
> 1000	< 1000	< 100	B (B indicates 50 < [fold] ≤ 500)	B (B indicates 50 < [fold] ≤ 500)	B (B indicates 50 < [fold] ≤ 500)	> 1000	> 1000	CC(C)c1cnn2c(NCc3ccccc3-c3nccc4cc(NC(=O)/C=C/CN(C)C)ccc34)nc(S(C)(=O)=O)nc12 [Compound 202]
> 1000	< 1000	< 100	A (A indicates [fold] > 500)	A (A indicates [fold] > 500)	A (A indicates [fold] > 500)	> 1000	> 1000	C=CC(=O)N1CCc2c(ccnc2-c2ccccc2CNc2nc(OC3CCC(C)(C)NC3)nc3c(C(C)C)cnn23)C1 (stereo not drawn) [Compound 203]
> 1000	< 1000	< 100	A (A indicates [fold] > 500)	A (A indicates [fold] > 500)	A (A indicates [fold] > 500)	> 1000	> 1000	CC(C)c1cnn2c(NCc3ccccc3-c3nccc4cc(NC(=O)/C=C/CN(C)C)ccc34)cc(C(F)(F)F)nc12 [Compound 204]
> 1000	< 1000	< 100	B (B indicates 50 < [fold] ≤ 500)	B (B indicates 50 < [fold] ≤ 500)	B (B indicates 50 < [fold] ≤ 500)	> 1000	> 1000	C=C(Br)C(=O)Nc1ccc2c(-c3ccccc3CNc3nc(NC[C@H]4CCNC[C@@H]4O)nc4c(C(C)C)cnn34)nccc2c1 [Compound 205]
> 1000	< 1000	< 100	A (A indicates [fold] > 500)	A (A indicates [fold] > 500)	A (A indicates [fold] > 500)	> 1000	> 1000	C=C(Cl)C(=O)Nc1ccc2c(-c3ccccc3CNc3nc(NC[C@H]4CCNC[C@@H]4O)nc4c(C(C)C)cnn34)nccc2c1 [Compound 206]
> 1000	< 1000	100 to 1000	B (B indicates 50 < [fold] ≤ 500)	B (B indicates 50 < [fold] ≤ 500)	B (B indicates 50 < [fold] ≤ 500)	> 1000	> 1000	C=C(C)C(=O)Nc1ccc2c(-c3ccccc3CNc3nc(Nc4cccnc4)nc4c(C(C)C)cnn34)nccc2c1 [Compound 207]
> 1000	1000 to 10000	100 to 1000	B (B indicates 50 < [fold] ≤ 500)	B (B indicates 50 < [fold] ≤ 500)	B (B indicates 50 < [fold] ≤ 500)	> 1000	> 1000	C=C(C)C(=O)Nc1ccc2c(-c3ccccc3CNc3cc(C(F)(F)F)nc4c(C(C)C)cnn34)nccc2c1 [Compound 208]
> 1000	< 1000	< 100	A (A indicates [fold] > 500)	A (A indicates [fold] > 500)	A (A indicates [fold] > 500)	> 1000	> 1000	C=C(Cl)C(=O)Nc1ccc2c(-c3ccccc3CNc3nc(N[C@H]4CC[C@H](OC)CC4)nc4c(C(C)C)cnn34)nccc2c1 [Compound 209]
> 1000	< 1000	< 100	B (B indicates 50 < [fold] ≤ 500)	B (B indicates 50 < [fold] ≤ 500)	B (B indicates 50 < [fold] ≤ 500)	> 1000	> 1000	C=CC(=O)Nc1ccc2c(-c3ccccc3CNc3nc(N4CCN(CC(F)(F)F)CC4)nc4c(C(C)C)cnn34)nccc2c1 [Compound 210]
> 1000	< 1000	< 100	A (A indicates [fold] > 500)	A (A indicates [fold] > 500)	A (A indicates [fold] > 500)	> 1000	> 1000	C=CC(=O)Nc1ccc2c(-c3ccccc3CNc3nc(N4CCNC(C(F)(F)F)C4)nc4c(C(C)C)cnn34)nccc2c1 (stereo not drawn) [Compound 211]
